For 33 compounds, IC50 results are on record in patent US8410117B2, “Imidazopyrimidine derivatives” (Hoffmann-La Roche Inc., priority 2010, dated 2013).

Structures are written as SMILES.

In the assay the target is T1, human PDE10A (Homo sapiens, UniProt Q9Y233).
T1 construct: The human PDE10A full length assay; purchased Enzo Life Science, Lausen, Switzerland SE-534
T1 sequence (Q9Y233 1-779 isoform Q9Y233-1): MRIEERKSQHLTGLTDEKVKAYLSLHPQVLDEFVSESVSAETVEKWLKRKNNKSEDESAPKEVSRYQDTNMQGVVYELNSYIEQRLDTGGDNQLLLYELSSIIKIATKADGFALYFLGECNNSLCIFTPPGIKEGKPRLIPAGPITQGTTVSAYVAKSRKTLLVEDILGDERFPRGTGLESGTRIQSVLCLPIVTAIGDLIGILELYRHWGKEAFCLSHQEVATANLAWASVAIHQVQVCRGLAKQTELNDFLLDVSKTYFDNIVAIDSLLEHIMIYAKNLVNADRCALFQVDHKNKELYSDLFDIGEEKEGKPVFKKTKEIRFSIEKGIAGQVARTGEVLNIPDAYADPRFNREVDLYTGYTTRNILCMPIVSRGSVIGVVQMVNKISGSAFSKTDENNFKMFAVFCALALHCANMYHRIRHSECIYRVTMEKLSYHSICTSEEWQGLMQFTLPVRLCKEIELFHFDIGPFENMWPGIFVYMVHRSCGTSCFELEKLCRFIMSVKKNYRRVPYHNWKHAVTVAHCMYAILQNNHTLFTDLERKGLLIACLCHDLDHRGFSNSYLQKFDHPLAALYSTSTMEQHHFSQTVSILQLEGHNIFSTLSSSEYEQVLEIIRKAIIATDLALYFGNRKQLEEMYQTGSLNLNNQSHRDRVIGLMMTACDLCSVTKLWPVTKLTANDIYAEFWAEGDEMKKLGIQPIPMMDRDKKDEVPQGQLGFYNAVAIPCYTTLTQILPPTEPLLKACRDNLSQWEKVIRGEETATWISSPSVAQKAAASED
In words: human PDE10A full length Scintillation Proximity Assay (SPA). It counts as biochemical. To be noted: 50 nM cGMP and 50 nM [3H]-cGMP, 20 minutes at room temperature; read-out: PDE10A inhibition IC50. As to the method:
The following test was carried out in order to determine the activity of the compounds of the present invention. PDE10 activity of the compounds of the present invention was determined using a Scintillation Proximity Assay (SPA)-based method similar to the one previously described (Fawcett, L. et al., Proc Natl Acad Sci USA (2000) 97(7):3702-3707).
The human PDE10A full length assay was performed in 96-well micro titer plates. The reaction mixture of 50 μl contained 20 mM HEPES pH=7.5/10 mM MgCl2/0.05 mg/ml BSA (Sigma cat. #A-7906), 50 nM cGMP (Sigma, cat. #G6129) and 50 nM [^3H]-cGMP (GE Healthcare, cat. #TRK392 S.A. 13.2 Ci/mmol), 3.75 ng/well PDE10A enzyme (Enzo Life Science, Lausen, Switzerland cat #SE-534) with or without a specific test compound. A range of concentrations of the potential inhibitor was used to generate data for calculating the concentration of inhibitor resulting in 50% of the effect (e.g. IC50, the concentration of the competitor inhibiting PDE10A activity by 50%). Non-specific activity was tested without the enzyme. The reaction was initiated by the addition of the substrate solution (cGMP and [^3H]-cGMP) and allowed to progress for 20 minutes at room temperature. The reaction was terminated by adding 25 μl of YSi-SPA scintillation beads (GE Healthcare, cat. #RPNQ0150) in 18 mM zinc sulphate solution (stop reagent). After 1 h under shaking, the plate was centrifuged one minute at 170 g to allow beads to settle. Afterwards, radioactive counts were measured on a Perkin Elmer TopCount Scintillation plate reader.
A general note: Scintillation proximity formats need no separation of bound from free tracer.
A word on the IC50: it is the concentration that inhibits the measured activity by half. Take `O=C(Nc1ccn2cc(-c3ccccc3)nc2n1)c1ccno1` [Example 2, Isoxazole-5-carboxylic acid (2-phenyl-imidazo[1,2-a]pyrimidin-7-yl)-amide]: the IC50 stood at 0.951 µM.

Regarding `Cc1nn(C)c(C(=O)Nc2ccn3cc(-c4ccccc4)nc3n2)c1Cl` [Example 3, 4-Chloro-2,5-dimethyl-2H-pyrazole-3-carboxylic acid (2-phenyl-imidazo[1,2-a]pyrimidin-7-yl)-amide], the IC50 was 0.097 µM.

For the compound `O=C(Nc1ccn2cc(-c3ccccc3)nc2n1)c1ccnn1-c1ccccc1` [Example 4, 2-Phenyl-2H-pyrazole-3-carboxylic acid (2-phenyl-imidazo[1,2-a]pyrimidin-7-yl)-amide], the IC50 worked out at 0.671 µM.

With `Cc1nn(C)c(C(=O)Nc2ccn3cc(-c4ccccc4)nc3n2)c1Br` [Example 5, 4-Bromo-2,5-dimethyl-2H-pyrazole-3-carboxylic acid (2-phenyl-imidazo[1,2-a]pyrimidin-7-yl)-amide], the IC50 worked out at 0.0268 µM.

As to `Cn1ncc(Br)c1C(=O)Nc1ccn2cc(-c3ccccc3)nc2n1` [Example 6, 4-Bromo-2-methyl-2H-pyrazole-3-carboxylic acid (2-phenyl-imidazo[1,2-a]pyrimidin-7-yl)-amide], the concentration for half-maximal inhibition (IC50) was 0.384 µM.

Turning to `CCn1ncc(Cl)c1C(=O)Nc1ccn2cc(-c3ccccc3)nc2n1` [Example 7, 4-Chloro-2-ethyl-2H-pyrazole-3-carboxylic acid (2-phenyl-imidazo[1,2-a]pyrimidin-7-yl)-amide], the IC50 came out at 0.14 µM.

Regarding `CCCn1ncc(Cl)c1C(=O)Nc1ccn2cc(-c3ccccc3)nc2n1` [Example 8, 4-Chloro-2-propyl-2H-pyrazole-3-carboxylic acid (2-phenyl-imidazo[1,2-a]pyrimidin-7-yl)-amide], the IC50 stood at 0.0647 µM.

Consider `CCCCn1ncc(Cl)c1C(=O)Nc1ccn2cc(-c3ccccc3)nc2n1` [Example 9, 2-Butyl-4-chloro-2H-pyrazole-3-carboxylic acid (2-phenyl-imidazo[1,2-a]pyrimidin-7-yl)-amide], for which the IC50 amounted to 0.0446 µM.

Consider `CC(C)n1ncc(Cl)c1C(=O)Nc1ccn2cc(-c3ccccc3)nc2n1` [Example 10, 4-Chloro-2-isopropyl-2H-pyrazole-3-carboxylic acid (2-phenyl-imidazo[1,2-a]pyrimidin-7-yl)-amide], for which the IC50 came out at 0.105 µM.

`CCC(C)n1ncc(Cl)c1C(=O)Nc1ccn2cc(-c3ccccc3)nc2n1` (stereo not drawn) [Example 11, 2-sec-Butyl-4-chloro-2H-pyrazole-3-carboxylic acid (2-phenyl-imidazo[1,2-a]pyrimidin-7-yl)-amide]: the IC50 was found to be 0.105 µM.

Consider `CC(C)Cn1ncc(Cl)c1C(=O)Nc1ccn2cc(-c3ccccc3)nc2n1` [Example 12, 4-Chloro-2-isobutyl-2H-pyrazole-3-carboxylic acid (2-phenyl-imidazo[1,2-a]pyrimidin-7-yl)-amide], for which the IC50 stood at 0.0188 µM.

Take `CC(C)Cn1nc([N+](=O)[O-])cc1C(=O)Nc1ccn2cc(-c3ccccc3)nc2n1` [Example 13, 2-Isobutyl-5-nitro-2H-pyrazole-3-carboxylic acid (2-phenyl-imidazo[1,2-a]pyrimidin-7-yl)-amide]: the IC50 came out at 0.0479 µM.

With `O=C(Nc1ccn2cc(-c3ccccc3)nc2n1)c1cc([N+](=O)[O-])nn1C1CCCC1` [Example 14, 2-Cyclopentyl-5-nitro-2H-pyrazole-3-carboxylic acid (2-phenyl-imidazo[1,2-a]pyrimidin-7-yl)-amide], the half-inhibitory concentration (IC50) worked out at 0.125 µM.

For the compound `CCn1nc([N+](=O)[O-])cc1C(=O)Nc1ccn2cc(-c3ccccc3)nc2n1` [Example 15, 2-Ethyl-5-nitro-2H-pyrazole-3-carboxylic acid (2-phenyl-imidazo[1,2-a]pyrimidin-7-yl)-amide], the IC50 worked out at 0.748 µM.

On to `CC(C)n1nc([N+](=O)[O-])cc1C(=O)Nc1ccn2cc(-c3ccccc3)nc2n1` [Example 16, 2-Isopropyl-5-nitro-2H-pyrazole-3-carboxylic acid (2-phenyl-imidazo[1,2-a]pyrimidin-7-yl)-amide], for which the IC50 came out at 0.0821 µM.

On to `Cc1ccc(C)c(C(=O)Nc2ccn3cc(-c4ccccc4)nc3n2)n1` [Example 17, 3,6-Dimethyl-pyridine-2-carboxylic acid (2-phenyl-imidazo[1,2-a]pyrimidin-7-yl)-amide], for which the IC50 stood at 0.0283 µM.

For `O=C(Nc1ccn2cc(-c3ccccc3)nc2n1)c1noc2c1CCCC2` [Example 18, 4,5,6,7-Tetrahydro-benzo[d] isoxazole-3-carboxylic acid (2-phenyl-imidazo[1,2-a]pyrimidin-7-yl)-amide], the IC50 was found to be 0.147 µM.

Regarding `O=C(Nc1ccn2cc(-c3ccccc3)nc2n1)c1ccnc(Cl)c1` [Example 19, 2-Chloro-N-(2-phenyl-imidazo[1,2-a]pyrimidin-7-yl)-isonicotinamide], the IC50 was found to be 0.553 µM.

As for `Cn1ncc(-c2ccno2)c1C(=O)Nc1ccn2cc(-c3ccccc3)nc2n1` [Example 20, 4-Isoxazol-5-yl-2-methyl-2H-pyrazole-3-carboxylic acid (2-phenyl-imidazo[1,2-a]pyrimidin-7-yl)-amide], the IC50 was 0.643 µM.

For the compound `O=C(Nc1ccn2cc(-c3ccccc3)nc2n1)c1cccc(Cl)n1` [Example 21, 6-Chloro-pyridine-2-carboxylic acid (2-phenyl-imidazo[1,2-a]pyrimidin-7-yl)-amide], the IC50 worked out at 0.314 µM.

Take `COc1cccc(C(=O)Nc2ccn3cc(-c4ccccc4)nc3n2)n1` [Example 22, 6-Methoxy-pyridine-2-carboxylic acid (2-phenyl-imidazo[1,2-a]pyrimidin-7-yl)-amide]: the IC50 came out at 0.042 µM.

With `Cc1cc(Br)cnc1C(=O)Nc1ccn2cc(-c3ccccc3)nc2n1` [Example 23, 5-Bromo-3-methyl-pyridine-2-carboxylic acid (2-phenyl-imidazo[1,2-a]pyrimidin-7-yl)-amide], the IC50 amounted to 0.0643 µM.

As to `Cc1cc(Br)c(C)c(C(=O)Nc2ccn3cc(-c4ccccc4)nc3n2)n1` [Example 24, 4-Bromo-3,6-dimethyl-pyridine-2-carboxylic acid (2-phenyl-imidazo[1,2-a]pyrimidin-7-yl)-amide], the IC50 was determined as 0.321 µM.

On to `Cc1cccc(C(=O)Nc2ccn3cc(-c4ccccc4)nc3n2)n1` [Example 25, 6-Methyl-pyridine-2-carboxylic acid (2-phenyl-imidazo[1,2-a]pyrimidin-7-yl)-amide], for which the IC50 came out at 0.324 µM.

For `COC(=O)c1[nH]nnc1C(=O)Nc1ccn2cc(-c3ccccc3)nc2n1` [Example 26, 5-(2-Phenyl-imidazo[1,2-a]pyrimidin-7-ylcarbamoyl)-3H-[1,2,3]triazole-4-carboxylic acid methyl ester], the IC50 was 0.024 µM.

Regarding `O=C(Nc1ccn2cc(-c3ccccc3)nc2n1)c1nn[nH]c1C(=O)N1CCC1` [Example 27, 5-(Azetidine-1-carbonyl)-1H-[1,2,3]triazole-4-carboxylic acid (2-phenyl-imidazo[1,2-a]pyrimidin-7-yl)-amide], the IC50 stood at 0.163 µM.

Take `CCN(C)C(=O)c1[nH]nnc1C(=O)Nc1ccn2cc(-c3ccccc3)nc2n1` [Example 28, 1H-[1,2,3]Triazole-4,5-dicarboxylic acid 5-(ethyl-methyl-amide) 4-[(2-phenyl-imidazo[1,2-a]pyrimidin-7-yl)-amide]]: the 50% inhibitory concentration (IC50) was 0.251 µM.

For the compound `Cn1ncc(C(=O)N2CCC2)c1C(=O)Nc1ccn2cc(-c3ccccc3)nc2n1` [Example 29, 4-(Azetidine-1-carbonyl)-2-methyl-2H-pyrazole-3-carboxylic acid (2-phenyl-imidazo[1,2-a]pyrimidin-7-yl)-amide], the IC50 was determined as 0.0033 µM.

As to `Cn1ncc(C(=O)N2CCOCC2)c1C(=O)Nc1ccn2cc(-c3ccccc3)nc2n1` [Example 30, 2-Methyl-4-(morpholine-4-carbonyl)-2H-pyrazole-3-carboxylic acid (2-phenyl-imidazo[1,2-a]pyrimidin-7-yl)-amide], the IC50 was determined as 0.0331 µM.

As to `CNC(=O)c1cnn(C)c1C(=O)Nc1ccn2cc(-c3cccc(Cl)c3)nc2n1` [Example 32, 2-Methyl-2H-pyrazole-3,4-dicarboxylic acid 3-{[2-(3-chloro-phenyl)-imidazo[1,2-a]pyrimidin-7-yl]-amide}4-methylamide], the half-maximal inhibitory concentration (IC50) was determined as 0.0228 µM.

As for `Cn1ncc(C(=O)N2CC(F)(F)C2)c1C(=O)Nc1ccn2cc(-c3ccccc3)nc2n1` [Example 34, 4-(3,3-Difluoro-azetidine-1-carbonyl)-2-methyl-2H-pyrazole-3-carboxylic acid (2-phenyl-imidazo[1,2-a]pyrimidin-7-yl)-amide], the IC50 worked out at 0.035 µM.

For `Cn1ncc(C(=O)N2CC(O)C2)c1C(=O)Nc1ccn2cc(-c3ccccc3)nc2n1` [Example 36, 4-(3-Hydroxy-azetidine-1-carbonyl)-2-methyl-2H-pyrazole-3-carboxylic acid (2-phenyl-imidazo[1,2-a]pyrimidin-7-yl)-amide], the IC50 was found to be 0.032 µM.

`Cn1ncc(C(=O)NCCCO)c1C(=O)Nc1ccn2cc(-c3ccccc3)nc2n1` [Example 38]: the IC50 turned out to be 0.0229 µM.
